Laboratory results taken from ChEMBL document CHEMBL2331173, “Water-mediated interactions influence the binding of thapsigargin to sarco/endoplasmic reticulum calcium adenosinetriphosphatase” (J Med Chem, 2013).

Molecular target: Sarcoplasmic/endoplasmic reticulum calcium ATPase 1 (Oryctolagus cuniculus, UniProt P04191)
Test: Binding affinity to SERCA1a in sarcoplasmic reticulum vesicles of rabbit skeletal muscle after 2.5 to 6 mins by spectrophotometric analysis
Design: species or system Muscle tissue

Sequence of Sarcoplasmic/endoplasmic reticulum calcium ATPase 1 (P04191 whole entry): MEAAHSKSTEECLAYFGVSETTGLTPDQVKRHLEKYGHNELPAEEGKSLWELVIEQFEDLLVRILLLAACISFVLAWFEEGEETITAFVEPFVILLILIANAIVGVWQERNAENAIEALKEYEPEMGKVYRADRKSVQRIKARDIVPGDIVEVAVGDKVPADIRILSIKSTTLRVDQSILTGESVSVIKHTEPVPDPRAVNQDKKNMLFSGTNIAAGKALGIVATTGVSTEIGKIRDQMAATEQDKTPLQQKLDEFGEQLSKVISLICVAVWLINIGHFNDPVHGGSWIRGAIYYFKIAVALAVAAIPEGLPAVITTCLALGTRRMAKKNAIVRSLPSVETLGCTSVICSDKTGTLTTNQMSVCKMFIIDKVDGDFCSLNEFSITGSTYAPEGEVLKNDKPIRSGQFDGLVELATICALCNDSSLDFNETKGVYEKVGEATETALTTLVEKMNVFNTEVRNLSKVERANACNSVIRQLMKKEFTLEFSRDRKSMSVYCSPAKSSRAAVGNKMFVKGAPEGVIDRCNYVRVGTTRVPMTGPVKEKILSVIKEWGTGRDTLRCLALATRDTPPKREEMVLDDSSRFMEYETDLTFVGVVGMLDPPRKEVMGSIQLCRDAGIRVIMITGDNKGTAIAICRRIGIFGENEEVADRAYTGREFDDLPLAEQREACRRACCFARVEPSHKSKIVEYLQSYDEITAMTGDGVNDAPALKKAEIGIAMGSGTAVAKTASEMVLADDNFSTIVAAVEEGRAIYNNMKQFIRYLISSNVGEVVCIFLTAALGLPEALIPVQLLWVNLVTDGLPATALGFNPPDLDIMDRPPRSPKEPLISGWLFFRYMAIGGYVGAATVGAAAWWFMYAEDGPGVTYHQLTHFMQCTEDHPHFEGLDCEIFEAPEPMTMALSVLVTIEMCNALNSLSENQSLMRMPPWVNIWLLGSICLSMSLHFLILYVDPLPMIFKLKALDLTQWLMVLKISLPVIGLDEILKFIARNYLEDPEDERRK

SMILES | Kd
C/C=C(/C)C(=O)O[C@H]1C(C)=C2[C@H]([C@@H]1OC(=O)CCCCCCC)[C@@](C)(OC(=O)CCCCCCC)C[C@H](OC(=O)CCC)[C@@]1(O)[C@H]2OC(=O)[C@@]1(C)O | 2.5 nM
C/C=C(/C)C(=O)O[C@H]1C(C)=C2[C@H]([C@@H]1OC(=O)c1ccccc1)[C@@](C)(OC(C)=O)C[C@H](OC(=O)CCC)[C@@]1(O)[C@H]2OC(=O)[C@@]1(C)O | 1.5 nM
C/C=C(/C)C(=O)O[C@H]1C(C)=C2[C@H]([C@@H]1OC(=O)CCCCCCC)[C@@](C)(OC(C)=O)C[C@H](OC(=O)CCC)[C@@]1(OC(=O)CCC)[C@H]2OC(=O)[C@@]1(C)O | 11 nM
C/C=C(/C)C(=O)O[C@H]1C(C)=C2[C@H]([C@@H]1OC(=O)CCCCCCC)[C@@](C)(OC(C)=O)C[C@H](OC(=O)CCC)[C@@]1(OC(=O)CCCCC)[C@H]2OC(=O)[C@@]1(C)O | 8.5 nM
C/C=C(/C)C(=O)O[C@H]1C(C)=C2[C@H]([C@@H]1OC(=O)CCCCCCC)[C@@](C)(OC(C)=O)C[C@H](OC(=O)CCC)[C@@]1(OC(=O)C(C)C)[C@H]2OC(=O)[C@@]1(C)O | 13 nM
C/C=C(/C)C(=O)O[C@H]1C(C)=C2[C@H]([C@@H]1OC(=O)CCCCCCC)[C@@](C)(OC(C)=O)C[C@H](OC(=O)CCC)[C@@]1(OC(=O)CCCCCCC)[C@H]2OC(=O)[C@@]1(C)O | 55 nM
C/C=C(/C)C(=O)O[C@H]1C(C)=C2[C@H]([C@@H]1OC(=O)CCCCCCC)[C@@](C)(OC(C)=O)C[C@H](OC(=O)CCC)[C@@]1(OC(C)=O)[C@H]2OC(=O)[C@@]1(C)O | 2.6 nM
C/C=C(/C)C(=O)O[C@H]1C(C)=C2[C@H]([C@@H]1OC(=O)CCCCCCC)[C@@](C)(OC(C)=O)C[C@H](OC(=O)CCC)[C@@]1(O)[C@H]2O[C@H]2N=C(C)O[C@]21C | 1.7 nM
C/C=C(/C)C(=O)O[C@H]1C(C)=C2[C@H]([C@@H]1OC(=O)CCCCCCC)[C@@](C)(OC(C)=O)C[C@H](OC(=O)CCC)[C@@]1(O)[C@H]2O[C@H]2N=C(CCC)O[C@]21C | 20 nM
C/C=C(/C)C(=O)O[C@H]1C(C)=C2[C@H]([C@@H]1OC(=O)CCCCCCC)[C@@](C)(OC(C)=O)C[C@H](OC(=O)CCC)[C@@]1(O)[C@H]2O[C@H]2N=C(CCOCC)O[C@]21C | 79 nM
C/C=C(/C)C(=O)O[C@H]1C(C)=C2[C@H]([C@@H]1OC(=O)CCCCCCC)[C@@](C)(OC(C)=O)C[C@H](OC(=O)CCC)[C@]13O[C@]1(C)C(=O)O[C@@H]23 | 13 nM
C/C=C(/C)C(=O)O[C@H]1C(C)=C2[C@H]([C@@H]1OC(=O)CCCCCCC)[C@@](C)(OC(C)=O)C[C@H](OC(=O)CCC)[C@@]1(O)[C@H]2O[C@H](OC(C)=O)[C@@]1(C)OC(C)=O (relative stereo) | 9.4 nM
C/C=C(/C)C(=O)O[C@H]1C(C)=C2[C@H]([C@@H]1OC(=O)CCCCCCC)[C@@](C)(OC(C)=O)C[C@H](O)[C@@]1(O)[C@H]2OC(=O)[C@@]1(C)O [DEBUTANOYLTHAPSIGARGIN] | 10 nM
C/C=C(/C)C(=O)O[C@H]1C(C)=C2[C@H]([C@@H]1OC(=O)CCCCCCC)[C@@](C)(OC(C)=O)C[C@H](OC(=O)CCC)[C@@]1(O)[C@H]2OC(=O)[C@@]1(C)O [THAPSIGARGIN] | 0.2 nM
